The record followed here is patent US9586969B2, “Microbiocidal heterobicyclic derivatives” (Syngenta Participations AG, priority 2014, dated 2017).

One data set has as its system Fusarium culmorum. Briefly: microbe, parasite or virus in culture. Format: cell-based. As to conditions: 72 h, read-out: disease control.
Data set [1] deals with Glomerella lagenarium (Colletotrichum lagenarium). Briefly: Glomerella lagenarium (Colletotrichum lagenarium) / liquid culture (Anthracnose). As to conditions: Colletotrichum orbiculare; 200 ppm; liquid culture, 24° C., inhibition of growth measured photometrically 3-4 days after application; vs untreated control; read-out: disease control. The format is cell-based.
In data set [2] the test system is Mycosphaerella graminicola (Septoria tritici). Briefly: Mycosphaerella graminicola (Septoria tritici) / liquid culture (Septoria blotch). The format is cell-based. As to conditions: Zymoseptoria tritici, 96 h, read-out: disease control.
The subject of data set [3] is Monographella nivalis (Microdochium nivale). Briefly: Monographella nivalis (Microdochium nivale) / liquid culture (Foot rot cereals). The format is cell-based. As to conditions: 96 h, 200 ppm, liquid culture, 24° C., inhibition of growth determined photometrically 4-5 days after application, vs untreated control, read-out: disease control.
The next data set deals with Gaeumannomyces graminis. Briefly: Gaeumannomyces graminis / liquid culture (Take-all of cereals). The format is cell-based. Conditions: 96 h, read-out: disease control.
Data set [4] has as its system Botryotinia fuckeliana (Botrytis cinerea). Briefly: Botryotinia fuckeliana (Botrytis cinerea) / liquid culture (Gray mould). Format: cell-based. As to conditions: 72 h, 200 ppm, liquid culture, 24° C., inhibition of growth determined photometrically 3-4 days after application, vs untreated control, read-out: disease control.
[5] abbreviates: liquid culture, 24° C., inhibition of growth determined photometrically 4-5 days after application, vs untreated control.

Molecules are shown by their SMILES. Where two headings read alike, the source gives them in different places.

Compound `CC1(C)Cc2c(F)cccc2C(c2cnn3c(C#N)ccc3c2)=N1` [E 30, 3-(5-fluoro-3,3-dimethyl-4H-isoquinolin-1-yl)pyrrolo[1,2-b]pyridazine-7-carbonitrile] showed a melting point of 118 to 136 °C. Also, the inhibition of growth at 200 ppm in the data set with Fusarium culmorum is at least 80%. For the same compound, in data set [1], the inhibition of growth at 200 ppm was at least 80%. Further, the inhibition of growth at 200 ppm in data set [2] (setting [5]) is at least 80%. The inhibition of growth at 200 ppm in data set [3] is at least 80%. Besides, in the data set with Gaeumannomyces graminis (setting [5]), the inhibition of growth at 200 ppm was at least 80%. For the same compound, in data set [4], the inhibition of growth at 200 ppm is at least 80%.

In turn, `CC1(C)N=C(c2cnn3c(C#N)cc(Br)c3c2)c2cccc(F)c2C1(F)F` [E 64, 5-bromo-3-(4,4,5-trifluoro-3,3-dimethyl-1-isoquinolyl)pyrrolo[1,2-b]pyridazine-7-carbonitrile] gave a melting point of 190 to 192 °C.

With `CC1(C)N=C(c2cnn3c(C#N)ccc3c2)c2cccc(F)c2C1(F)F` [E 66, 3-(4,4,5-trifluoro-3,3-dimethyl-1-isoquinolyl)pyrrolo[1,2-b]pyridazine-7-carbonitrile], the melting point lay within 214 to 216 °C. Further, in the data set with Fusarium culmorum, the inhibition of growth at 200 ppm was at least 80%. In data set [1], the inhibition of growth at 200 ppm is at least 80%. Moreover, the inhibition of growth at 200 ppm in data set [3] was at least 80%. Further, the inhibition of growth at 200 ppm in data set [4] was at least 80%.

Consider `C#Cc1cccc2c1CC(C)(C)N=C2c1cnn2c(F)ccc2c1` [E 27], for which the inhibition of growth at 200 ppm (with Fusarium culmorum; in data set [1]; in data set [2] (setting [5]); in data set [3]; in the data set with Gaeumannomyces graminis (setting [5]); in data set [4]) was at least 80% throughout.

For `CC1(C)Cc2c(F)cccc2C(c2cnn3cccc3c2)=N1` [E 3], the inhibition of growth at 200 ppm (in the data set with Fusarium culmorum; in data set [1]; in data set [2] (setting [5]); in data set [3]; in the data set on Gaeumannomyces graminis (setting [5]); in data set [4]) was at least 80% in each case.

For `CC1(C)N=C(c2cnn3c(Cl)ccc3c2)c2cccc(F)c2C1(C)C` [E 76], the inhibition of growth at 200 ppm (in the data set with Fusarium culmorum; in data set [2]; with Gaeumannomyces graminis) was at least 80% each time.
